Reference: US20020173640A1, “ADAM polynucleotides, polypeptides, and antibodies” (Human Genome Sciences, Inc., priority 1999, published 2002)
Read-outs that look alike come from different tables or passages of the source. Square brackets hold non-standard residues; d marks the D form. Peptide text beside a SMILES is read from it. * marks the point of attachment. 4Abz = Nc1ccc(C(=O)O)cc1; NHOH = ON*

Key:
HIV = conditions: cited from earlier work
[1] = molecular target: T1, Bovine plasma alpha-2-macroglobulin (UniProt Q7SIH1)
T1 sequence: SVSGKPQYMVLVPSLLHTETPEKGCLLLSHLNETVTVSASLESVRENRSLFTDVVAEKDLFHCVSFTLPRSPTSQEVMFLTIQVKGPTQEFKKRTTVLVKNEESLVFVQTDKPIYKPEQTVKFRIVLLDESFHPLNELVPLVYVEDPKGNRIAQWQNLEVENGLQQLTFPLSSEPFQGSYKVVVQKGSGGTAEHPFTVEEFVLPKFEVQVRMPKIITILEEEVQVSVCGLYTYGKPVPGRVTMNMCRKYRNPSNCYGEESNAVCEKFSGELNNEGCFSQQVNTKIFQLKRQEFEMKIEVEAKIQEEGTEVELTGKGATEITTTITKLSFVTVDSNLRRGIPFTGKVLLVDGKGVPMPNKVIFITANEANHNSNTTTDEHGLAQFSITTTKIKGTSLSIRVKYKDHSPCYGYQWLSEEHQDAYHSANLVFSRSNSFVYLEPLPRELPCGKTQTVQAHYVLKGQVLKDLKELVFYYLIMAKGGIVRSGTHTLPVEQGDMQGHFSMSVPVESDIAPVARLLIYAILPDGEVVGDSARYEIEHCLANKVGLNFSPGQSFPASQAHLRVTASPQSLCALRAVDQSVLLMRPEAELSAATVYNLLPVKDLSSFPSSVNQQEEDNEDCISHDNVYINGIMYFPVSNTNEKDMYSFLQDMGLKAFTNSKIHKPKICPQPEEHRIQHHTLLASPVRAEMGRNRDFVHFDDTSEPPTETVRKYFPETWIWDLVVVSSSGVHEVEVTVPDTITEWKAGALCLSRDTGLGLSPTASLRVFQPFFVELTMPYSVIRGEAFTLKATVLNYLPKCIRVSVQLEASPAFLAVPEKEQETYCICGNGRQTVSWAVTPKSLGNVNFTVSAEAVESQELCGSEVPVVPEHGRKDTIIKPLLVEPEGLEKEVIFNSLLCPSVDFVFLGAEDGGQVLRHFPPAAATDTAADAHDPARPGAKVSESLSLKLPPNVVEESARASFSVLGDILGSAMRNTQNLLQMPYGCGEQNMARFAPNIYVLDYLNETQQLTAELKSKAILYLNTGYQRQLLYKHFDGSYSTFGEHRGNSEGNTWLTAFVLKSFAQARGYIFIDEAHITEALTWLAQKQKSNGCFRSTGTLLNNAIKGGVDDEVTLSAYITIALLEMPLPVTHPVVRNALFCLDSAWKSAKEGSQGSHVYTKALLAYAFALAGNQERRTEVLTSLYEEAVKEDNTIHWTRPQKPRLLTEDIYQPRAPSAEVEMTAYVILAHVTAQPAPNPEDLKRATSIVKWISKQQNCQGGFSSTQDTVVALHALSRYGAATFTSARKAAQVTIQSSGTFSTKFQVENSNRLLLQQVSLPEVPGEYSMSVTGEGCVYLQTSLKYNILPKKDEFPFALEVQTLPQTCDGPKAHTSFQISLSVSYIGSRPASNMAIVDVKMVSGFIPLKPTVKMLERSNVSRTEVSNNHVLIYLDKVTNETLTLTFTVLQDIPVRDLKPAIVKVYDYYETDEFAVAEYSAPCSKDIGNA

hADAM-19 = molecular target: T2, hADAM-19 (Homo sapiens, UniProt Q9H013); test: Inhibition of α2-M cleavage by hADAM-19 (SDS-PAGE, silver staining); type: biochemical
T2 construct: made in house
T2 sequence (Q9H013 26-701 isoform Q9H013-2): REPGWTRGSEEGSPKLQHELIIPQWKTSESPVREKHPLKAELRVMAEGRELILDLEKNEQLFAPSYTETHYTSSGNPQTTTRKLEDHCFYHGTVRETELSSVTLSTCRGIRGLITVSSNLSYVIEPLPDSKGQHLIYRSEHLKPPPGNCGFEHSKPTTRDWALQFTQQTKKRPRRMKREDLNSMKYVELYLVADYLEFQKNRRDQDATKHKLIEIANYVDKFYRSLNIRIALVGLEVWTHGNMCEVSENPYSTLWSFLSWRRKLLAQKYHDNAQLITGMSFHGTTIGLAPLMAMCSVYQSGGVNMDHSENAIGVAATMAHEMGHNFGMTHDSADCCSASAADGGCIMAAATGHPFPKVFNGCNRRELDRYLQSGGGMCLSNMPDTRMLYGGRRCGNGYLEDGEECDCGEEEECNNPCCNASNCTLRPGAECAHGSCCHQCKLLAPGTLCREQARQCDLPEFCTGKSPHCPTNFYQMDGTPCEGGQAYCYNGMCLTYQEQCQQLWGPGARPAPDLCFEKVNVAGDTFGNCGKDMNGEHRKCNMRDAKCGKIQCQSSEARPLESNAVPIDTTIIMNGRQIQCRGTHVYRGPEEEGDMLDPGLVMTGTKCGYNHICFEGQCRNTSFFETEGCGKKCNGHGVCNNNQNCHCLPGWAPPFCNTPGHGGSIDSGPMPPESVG
Method: 20 mM EDTA, 20 rmiM EGTA, 10 mM HgCl2, 1 miM TIMP-1,-2 (TIMP: hADAM-19 molar ratio was 100:1) and three commercial (CALBIOCHEM) small molecule human MMP inhibitors were used to inhibit α2-M cleavage by hADAM-19. […] Briefly, different concentrations of those inhibitors were mixed with 7.5 μl of hADAM-19 (50 μg/ml) in 22.9 μl of 1× HEPES buffer (50 mM HEPES, pH 7.5, 0.2 M NaCl, 10 mM CaCl2, 25 μM ZnCl, and 0.05%Brij-35) and incubated at room temperature (24° C.) for 2-hr, then 7.1 μl of substrate α2-M (0.2 unit/ml) were added and incubated at 37° C. for 20-hr. The reactions were stopped by adding 4× sample bufer and boiled immediately for 5 minutes. After SDS-PAGE, the protein bands were visualized by silver staining.

MMP-1 = MMP-1 (Homo sapiens, UniProt P03956); conditions: commercial (CALBIOCHEM) inhibitor data; read-out: IC50 against MMP-1; cited from earlier work
MMP-8 = MMP-8 (Homo sapiens, UniProt P22894); conditions: commercial (CALBIOCHEM) inhibitor data; read-out: IC50 against MMP-8; cited from earlier work
MMP-9 = MMP-9 (Homo sapiens, UniProt P14780); conditions: commercial (CALBIOCHEM) inhibitor data; read-out: IC50 against MMP-9; cited from earlier work
MMP-3 = MMP-3 (Homo sapiens, UniProt P08254); conditions: commercial (CALBIOCHEM) inhibitor data; read-out: IC50 against MMP-3; cited from earlier work
[2] = system: viruses containing the K103N mutation; conditions: cited from earlier work
[3] = molecular target: T3, Bovine plasma alpha-2-macroglobulin, Q7SIH1
T3 chain: T1 sequence

[4] = molecular target: Mca fluorogenic peptide substrate M-1985
[5] = molecular target: Mca fluorogenic peptide substrate M-2105
[6] = molecular target: Mca fluorogenic peptide substrate M-2110
[7] = molecular target: Mca fluorogenic peptide substrate M-2225
[8] = molecular target: Mca fluorogenic peptide substrate M-2255
[9] = molecular target: rat tail tendon type I gelatin
[10] = summary statement, concentration not given

Sequence of MMP-1 (P03956 100-469): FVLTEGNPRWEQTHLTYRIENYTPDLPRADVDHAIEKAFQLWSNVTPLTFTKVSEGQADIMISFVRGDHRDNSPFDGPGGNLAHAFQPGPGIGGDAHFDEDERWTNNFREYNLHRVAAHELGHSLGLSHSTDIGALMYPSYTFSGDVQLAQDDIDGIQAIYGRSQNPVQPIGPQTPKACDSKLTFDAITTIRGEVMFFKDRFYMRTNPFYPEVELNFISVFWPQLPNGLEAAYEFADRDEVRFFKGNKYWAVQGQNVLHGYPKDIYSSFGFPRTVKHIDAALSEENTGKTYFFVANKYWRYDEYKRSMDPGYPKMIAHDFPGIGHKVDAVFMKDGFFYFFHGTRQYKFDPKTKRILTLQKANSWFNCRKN
Sequence of MMP-3 (P08254 100-477): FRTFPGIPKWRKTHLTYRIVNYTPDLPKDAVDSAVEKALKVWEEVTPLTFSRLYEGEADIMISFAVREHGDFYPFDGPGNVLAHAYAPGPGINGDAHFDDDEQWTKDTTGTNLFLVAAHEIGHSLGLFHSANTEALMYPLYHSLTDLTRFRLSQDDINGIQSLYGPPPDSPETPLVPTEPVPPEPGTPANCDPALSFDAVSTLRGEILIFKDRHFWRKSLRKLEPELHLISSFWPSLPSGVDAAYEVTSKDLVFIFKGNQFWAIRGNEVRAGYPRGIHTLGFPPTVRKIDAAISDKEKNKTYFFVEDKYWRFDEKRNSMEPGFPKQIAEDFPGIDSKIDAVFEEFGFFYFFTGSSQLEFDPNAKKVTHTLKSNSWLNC
Sequence of MMP-8 (P22894 101-467): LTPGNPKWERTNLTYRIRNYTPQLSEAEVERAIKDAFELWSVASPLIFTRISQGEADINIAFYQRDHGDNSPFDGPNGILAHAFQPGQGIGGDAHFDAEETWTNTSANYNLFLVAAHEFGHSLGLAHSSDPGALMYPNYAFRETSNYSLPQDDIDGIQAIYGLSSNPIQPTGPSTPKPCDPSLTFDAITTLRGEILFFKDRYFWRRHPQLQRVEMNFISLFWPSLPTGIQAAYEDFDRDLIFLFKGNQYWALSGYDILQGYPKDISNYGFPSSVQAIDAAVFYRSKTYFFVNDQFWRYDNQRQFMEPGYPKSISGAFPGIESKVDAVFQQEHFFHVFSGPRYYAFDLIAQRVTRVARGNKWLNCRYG
Sequence of MMP-9 (P14780 94-707): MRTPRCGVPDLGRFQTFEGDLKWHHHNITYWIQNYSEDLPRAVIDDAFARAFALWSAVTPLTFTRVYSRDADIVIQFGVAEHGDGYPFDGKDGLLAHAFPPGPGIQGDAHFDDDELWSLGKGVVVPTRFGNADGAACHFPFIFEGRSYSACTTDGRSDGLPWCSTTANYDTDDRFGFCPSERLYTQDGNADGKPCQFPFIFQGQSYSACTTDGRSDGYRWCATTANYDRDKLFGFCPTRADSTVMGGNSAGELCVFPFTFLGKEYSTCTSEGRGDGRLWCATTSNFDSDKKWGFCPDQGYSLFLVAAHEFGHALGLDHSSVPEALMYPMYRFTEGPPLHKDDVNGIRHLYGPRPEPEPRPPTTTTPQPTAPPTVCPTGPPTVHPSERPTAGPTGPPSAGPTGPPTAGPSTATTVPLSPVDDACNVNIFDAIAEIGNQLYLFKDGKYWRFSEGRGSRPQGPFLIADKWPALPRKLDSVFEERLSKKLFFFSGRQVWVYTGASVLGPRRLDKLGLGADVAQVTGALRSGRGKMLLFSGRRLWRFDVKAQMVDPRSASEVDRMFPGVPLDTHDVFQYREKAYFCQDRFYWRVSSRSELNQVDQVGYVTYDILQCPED

For `Nc1nc(=O)n([C@@H]2CS[C@H](CO)O2)cc1F` [COVIRACIL, emtricitabine], the “activity in vitro relative to lamivudine (3TC)” value (HIV; greater activity than lamivudine (3TC)) is given as 3- to 10 fold.

For Trypsin, the “cleavage of α2-M (SDS-PAGE, silver staining)” value [1] was “Trypsin was used as a positive proteinase control to cleave α2-M and it generated a 72 kDa major band and a 35 kDa minor band”.

For “TIMP-1: tissue inhibitor of metalloproteinases”, the “blockage of hADAM-19 digestion of α2-M” value (hADAM-19; TIMP:hADAM-19 molar ratio of 100:1) was “Neither TIMP-1 or TIMP-2 at TIMP:hADAM-1 9 molar ratio of 100:1 were able to block” and the “blockage of hADAM-19 proteolytic activity against α2-M” value (“blockage … against α2-M” below) (hADAM-19; [10]) was “not blocked”.

For `c1cnc2c(c1)ccc1cccnc12` [1,10-phenathroline], the “blockage … against α2-M” value (hADAM-19; [10]) was “blocked completely”.

In the case of `CC(C)C[C@@H](NC(=O)[C@@H]1CCCN1C(=O)CNC(=O)c1ccc(N)cc1)C(=O)N[C@H](C)C(=O)NO` [MMP inhibitor I] (H-[4Abz]GP[dL][dA]-{NHOH}), the “blockage of hADAM-19 digestion of α2-M” value (hADAM-19; 1 mM inhibitor) is given as “did not block”, the IC50 (MMP-1) is given as 1 µM and the IC50 (MMP-8) is given as 1 µM. For the same molecule, the IC50 (MMP-9) was 30 µM and the IC50 (MMP-3) was 150 µM.

For `CC(C)c1nc(COC(N)=O)n(Cc2ccncc2)c1Sc1cc(Cl)cc(Cl)c1` [CAPRAVIRINE], the “activity against K103N mutants” value [2] is listed as “activity against viruses containing the K103N mutation”.

With `O=C(O)CN(CCN(CC(=O)O)CC(=O)O)CC(=O)O` [EDTA] the “blockage of hADAM-19 digestion of α2-M” value (hADAM-19) was “completely blocked” and the “blockage … against α2-M” value (hADAM-19) was “blocked completely”.

For `CC[C@H]1C(=O)Nc2ccc(F)cc2N1C(=O)OC(C)C` [GW-420867X], the “activity relative to HBY097” value (HIV; greater activity than HBY097) is given as 25 fold and the “activity against K103N mutants” value [2] is given as “active against K103N mutants”.

In the case of `COc1ccc(S(=O)(=O)N(CC(=O)NO)CC(C)C)cc1` [MMP-3 inhibitor II, N-Isobutyl-N-(4-methoxyphenylsulfonyl)-glycylhydroxamic acid], the “blockage of hADAM-19 digestion of α2-M” value (hADAM-19; 100 µM inhibitor) is reported as “partially blocked” and the “blockage of hADAM-19 digestion of α2-M” value (hADAM-19; 1 mM inhibitor) is reported as “partially blocked”.

For `O=C(O)CN(CCOCCOCCN(CC(=O)O)CC(=O)O)CC(=O)O` [EGTA], the “blockage of hADAM-19 digestion of α2-M” value (hADAM-19; 20 mM inhibitor) was “completely blocked” and the “blockage … against α2-M” value (hADAM-19; [10]) was “blocked completely”.

In the case of `C[C@H](Sc1nc(N)cc(Cl)n1)c1cc2ccoc2cn1` [PNU-142721], the “activity relative to delavirdine” value (HIV; greater activity than its predecessor delavirdine) is listed as 20- to 50 fold and the “activity against K103N mutants” value [2] is listed as “active against K103N mutants”.

With `[Cl][Hg][Cl]` [HgCl2] the “blockage of hADAM-19 digestion of α2-M” value (hADAM-19; 10 mM inhibitor) was “completely blocked” and the “blockage … against α2-M” value (hADAM-19; [10]) was “blocked completely”.

B1: Flag-tagged hADAM-19 protein (residues 26-701 of SEQ ID NO: 9) (protein)
chain: T2 sequence (Q9H013 26-701 isoform Q9H013-2)
With B1 the “cleavage of α2-M (SDS-PAGE, silver staining)” value [3] was “Human hADAM-19 cleaved α2-M to yield new bands of 105 kDa and a 72 kDa”, the “proteolysis of alpha-2 macroglobulin” value [3] was “a polypeptide corresponding to this gene displayed metal-dependant proteolysis of alpha-2 macroglobulin” and the “fluorogenic peptide substrate cleavage” value [4] was “Neither were the 5 different synthetic fluorogenic peptide substrates listed in the Materials and Methods”. For the same molecule, the “fluorogenic peptide substrate cleavage” value [5] was “Neither were the 5 different synthetic fluorogenic peptide substrates listed in the Materials and Methods”, the “fluorogenic peptide substrate cleavage” value [6] was “Neither were the 5 different synthetic fluorogenic peptide substrates listed in the Materials and Methods” and the “fluorogenic peptide substrate cleavage” value [7] was “Neither were the 5 different synthetic fluorogenic peptide substrates listed in the Materials and Methods”. For the same molecule, the “fluorogenic peptide substrate cleavage” value [8] was “Neither were the 5 different synthetic fluorogenic peptide substrates listed in the Materials and Methods”, the substrate digestion (bovine casein) was “rat tail tendon type I gelatin and bovine casein, were not dissolved by hADAM-19” and the substrate digestion [9] was “rat tail tendon type I gelatin and bovine casein, were not dissolved by hADAM-19”.
